Molecular target: T1, Human orexin receptor type 2 (Homo sapiens, UniProt O43614)
T1 construct: expressed in transfected cells; host or cells: CHO cells (transient expression)
T1 sequence (O43614 1-444): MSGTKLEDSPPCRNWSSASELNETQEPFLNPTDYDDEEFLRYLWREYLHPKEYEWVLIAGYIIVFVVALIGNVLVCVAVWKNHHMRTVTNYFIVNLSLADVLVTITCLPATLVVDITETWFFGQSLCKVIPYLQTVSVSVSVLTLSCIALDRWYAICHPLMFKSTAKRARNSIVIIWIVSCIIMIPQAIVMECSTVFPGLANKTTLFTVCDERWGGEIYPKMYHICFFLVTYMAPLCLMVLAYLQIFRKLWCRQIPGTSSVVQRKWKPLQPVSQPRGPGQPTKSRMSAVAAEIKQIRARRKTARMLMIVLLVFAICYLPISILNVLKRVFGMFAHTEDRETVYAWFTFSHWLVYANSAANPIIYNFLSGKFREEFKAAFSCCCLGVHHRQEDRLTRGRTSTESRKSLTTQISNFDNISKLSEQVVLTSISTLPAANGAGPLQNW
Test: Test 1: Evaluation of agonist activity for orexin receptor type 2 (aequorin luminescence, intracellular calcium mobilization in CHO cells)
Type: cell-based
Settings: relative percentage of luminescence for the luminescence (100%) of Orexin A (100 pM); CHO cells transiently expressing human orexin receptor type 2 and apoaequorin; Orexin A Lot. 641114
Method: Test 1: Evaluation of Agonist Activity for Orexin Receptor Type 2
Human orexin receptor type 2 and apoaequorin were transiently expressed in CHO cells, and the agonist activity was evaluated based on intracellular calcium mobilization with ligand stimulation. The CHO cells transiently-expressed human orexin receptor type 2 and apoaequorin were seeded on a 384-well plate by 2,000 cells/well, and then incubated for 16-22 hours. After the plate was returned to room temperature, Coelenterazine hcp (final concentration: 1 μM) was added to the plate, and the plate was allowed to stand at room temperature for 2 hours. And then, Orexin A (PEPTIDE INSTITUTE, INC., Lot. 641114) or each test compound was added to the plate, and the luminescence of the cells was measured with FDSS7000 (Hamamatsu Photonics K.K.), wherein Orexin A and each test compound were dissolved in DMSO (final concentration: 0.1%), and diluted with a buffer (Hanks, 20 mM HEPES, 0.1% BSA). The agonist activity of each test compound for orexin receptor type 2 was calculated as relative percentage of luminescence for the luminescence (100%) of Orexin A (100 pM).

Row | SMILES | agonist activity (%)
1 | Cc1ccc(C2CC=C(C(=O)O[C@@H]3[C@@H](N4CCN(C(C)C)CC4)CCCC3(F)F)CC2)cc1 (mixture of isomers) [Example 78, rac-(1R,6S)-2,2-Difluoro-6-[4-(propan-2-yl)piperazin-1-yl]cyclohexyl 4′-methyl-1,2,3,6-tetrahydro[1,1′-biphenyl]-4-carboxylate] | 36
2 | CC(C)N1CCN([C@H]2CCCC(F)(F)[C@@H]2NC(=S)N2CCC(C)(c3noc(C4CC4)n3)CC2)CC1 (racemic) [Example 79, rac-4-(5-cyclopropyl-1,2,4-oxadiazol-3-yl)-N-{(1R,6S)-2,2-difluoro-6-[4-(propan-2-yl)piperazin-1-yl]cyclohexyl}-4-methylpiperidine-1-carbothioamide] | 191
3 | Cc1ccc(C2CCN(C(=O)NC3C(CN4CCN(C(C)C)CC4)[C@@H]4CC[C@H]3C4)CC2)cc1 (mixture of isomers) [Example 81, rac-4-(4-Methylphenyl)-N-[(1S,4R)-3-{[4-(propan-2-yl)piperazin-1-yl]methyl}bicyclo[2.2.1]heptan-2-yl]piperidine-1-carboxamide] | 57
4 | CC(C)N1CCN([C@H]2CCCC(F)(F)[C@@H]2OC(=O)N2CCC(C)(c3noc(C4CC4)n3)CC2)CC1 [Example 14, (1R,6S)-2,2-difluoro-6-[4-(propan-2-yl)piperazin-1-yl]cyclohexyl 4-(5-cyclopropyl-1,2,4-oxadiazol-3-yl)-4-methylpiperidine-1-carboxylate] | 178
5 | CC(C)N1CCN([C@@H]2CCCC(F)(F)[C@H]2NC(=O)N2CCC(C)(c3cc(C4CC4)on3)CC2)CC1 [Example 22, 4-(5-cyclopropyl-1,2-oxazol-3-yl)-N-{(1S,6R)-2,2-difluoro-6-[4-(propan-2-yl)piperazin-1-yl]cyclohexyl}-4-methylpiperidine-1-carboxamide] | 163
6 | CC(C)N1CCN([C@@H]2CCCC(F)(F)[C@H]2NC(=O)N2CCC(C)(c3noc(C4CC4)n3)CC2)CC1 [Example 23, 4-(5-cyclopropyl-1,2,4-oxadiazol-3-yl)-N-{(1S,6R)-2,2-difluoro-6-[4-(propan-2-yl)piperazin-1-yl]cyclohexyl}-4-methylpiperidine-1-carboxamide] | 104
7 | CC(C)N1CCN([C@H]2CCCC(F)(F)[C@@H]2NC(=O)N2CCC(C)(c3noc(C4CC4)n3)CC2)CC1 [Example 24, 4-(5-cyclopropyl-1,2,4-oxadiazol-3-yl)-N-{(1R,6S)-2,2-difluoro-6-[4-(propan-2-yl)piperazin-1-yl]cyclohexyl}-4-methylpiperidine-1-carboxamide] | 210
8 | CC(C)N1CCN([C@H]2CCCC(F)(F)[C@@H]2NC(=O)N2CCC(C)(c3cc(C4CC4)on3)CC2)CC1 [Example 25, 4-(5-cyclopropyl-1,2-oxazol-3-yl)-N-{(1R,6S)-2,2-difluoro-6-[4-(propan-2-yl)piperazin-1-yl]cyclohexyl}-4-methylpiperidine-1-carboxamide] | 165
9 | CC(C)N1CCN([C@H]2CCCC(F)(F)[C@@H]2NC(=O)N2CCC(C)(c3nsc(C4CC4)n3)CC2)CC1 [Example 43, 4-(5-cyclopropyl-1,2,4-thiadiazol-3-yl)-N-{(1R,6S)-2,2-difluoro-6-[4-(propan-2-yl)piperazin-1-yl]cyclohexyl}-4-methylpiperidine-1-carboxamide] | 146
10 | CC(C)N1CCN([C@H]2CCCC(F)(F)[C@@H]2NC(=O)N2CCC(C)(c3nnc(C4CC4)s3)CC2)CC1 [Example 44, 4-(5-cyclopropyl-1,3,4-thiadiazol-2-yl)-N-{(1R,6S)-2,2-difluoro-6-[4-(propan-2-yl)piperazin-1-yl]cyclohexyl}-4-methylpiperidine-1-carboxamide] | 148
11 | Cc1ccc(C2(C)CCN(C(=O)N[C@@H]3[C@@H](N4CCN(C(C)C)CC4)CCCC3(F)F)CC2)cc1 [Example 49, N-{(1R,6S)-2,2-difluoro-6-[4-(propan-2-yl)piperazin-1-yl]cyclohexyl}-4-methyl-4-(4-methylphenyl)piperidine-1-carboxamide] | 151
12 | Cc1ccc(C2(C)CCN(C(=O)N[C@@H]3[C@@H](N4CCN(C(C)C)CC4)CCCC3(F)F)CC2)c(F)c1 [Example 56, N-{(1R,6S)-2,2-difluoro-6-[4-(propan-2-yl)piperazin-1-yl]cyclohexyl}-4-(2-fluoro-4-methylphenyl)-4-methylpiperidine-1-carboxamide] | 140
13 | CC(C)N1CCN([C@H]2CCCC(F)(F)[C@@H]2NC(=O)N2CCC(C)(c3nsc(OC4CC4)n3)CC2)CC1 [Example 57, 4-[5-(cyclopropyloxy)-1,2,4-thiadiazol-3-yl]-N-{(1R,6S)-2,2-difluoro-6-[4-(propan-2-yl)piperazin-1-yl]cyclohexyl}-4-methylpiperidine-1-carboxamide] | 155
14 | Cc1ccc(C2(C)CCN(C(=O)N[C@@H]3[C@@H](N4CCN(C(C)C)CC4)CCCC3(F)F)CC2)c(C#N)c1 [Example 60, 4-(2-cyano-4-methylphenyl)-N-{(1R,6S)-2,2-difluoro-6-[4-(propan-2-yl)piperazin-1-yl]cyclohexyl}-4-methylpiperidine-1-carboxamide] | 151
15 | Cc1ccc(C2(C)CCN(C(=O)N[C@@H]3[C@@H](N4CC5CC(C4)N5C(C)C)CCCC3(F)F)CC2)cc1 [Example 61, N-{(1R,6S)-2,2-difluoro-6-[6-(propan-2-yl)-3,6-diazabicyclo[3.1.1]heptan-3-yl]cyclohexyl}-4-methyl-4-(4-methylphenyl)piperidine-1-carboxamide] | 169
16 | CC(C)N1CC2CCC(C1)N2[C@H]1CCCC(F)(F)[C@@H]1NC(=O)N1CCC(C)(c2noc(C3CC3)n2)CC1 [Example 62, 4-(5-cyclopropyl-1,2,4-oxadiazol-3-yl)-N-{(1R,6S)-2,2-difluoro-6-[3-(propan-2-yl)-3,8-diazabicyclo[3.2.1]octan-8-yl]cyclohexyl}-4-methylpiperidine-1-carboxamide] | 174
17 | Cc1ccc(C2(C)CCN(C(=O)N[C@@H]3[C@@H](N4C5CCC4CN(C(C)C)C5)CCCC3(F)F)CC2)cc1 [Example 63, N-{(1R,6S)-2,2-difluoro-6-[3-(propan-2-yl)-3,8-diazabicyclo[3.2.1]octan-8-yl]cyclohexyl}-4-methyl-4-(4-methylphenyl)piperidine-1-carboxamide] | 149
18 | CC(C)N1CC[C@@H](O[C@H]2CCCC(F)(F)[C@@H]2NC(=O)N2CCC(C)(c3noc(C4CC4)n3)CC2)C1 [Example 64, 4-(5-cyclopropyl-1,2,4-oxadiazol-3-yl)-N-[(1R,6S)-2,2-difluoro-6-{[(3R)-1-(propan-2-yl)pyrrolidin-3-yl]oxy}cyclohexyl]-4-methylpiperidine-1-carboxamide] | 204
19 | CC(C)N1CC2CCC(C1)N2[C@H]1CCCC(F)(F)[C@@H]1NC(=O)N1CCC(C)(c2cc(C3CC3)on2)CC1 [Example 65, 4-(5-cyclopropyl-1,2-oxazol-3-yl)-N-{(1R,6S)-2,2-difluoro-6-[3-(propan-2-yl)-3,8-diazabicyclo[3.2.1]octan-8-yl]cyclohexyl}-4-methylpiperidine-1-carboxamide] | 155
20 | CC(C)N1CCN([C@H]2CCCC(F)(F)[C@@H]2NC(=O)N2CCC(C)(c3noc([C@@H]4C[C@@H]4F)n3)CC2)CC1 [Example 66, N-{(1R,6S)-2,2-difluoro-6-[4-(propan-2-yl)piperazin-1-yl]cyclohexyl}-4-{5-[(1S,2S)-2-fluorocyclopropyl]-1,2,4-oxadiazol-3-yl}-4-methylpiperidine-1-carboxamide] | 144
21 | Cc1ccc(C2(C)CCN(C(=O)N[C@@H]3[C@@H](O[C@@H]4CCN(C(C)C)C4)CCCC3(F)F)CC2)cc1 [Example 67, N-[(1R,6S)-2,2-difluoro-6-{[(3R)-1-(propan-2-yl)pyrrolidin-3-yl]oxy}cyclohexyl]-4-methyl-4-(4-methylphenyl)piperidine-1-carboxamide] | 175
22 | CC(C)N1CCN([C@H]2CCCC(F)(F)[C@@H]2NC(=O)N2CCC(C)(c3noc([C@H]4C[C@H]4C)n3)CC2)CC1 [Example 68, N-{(1R,6S)-2,2-difluoro-6-[4-(propan-2-yl)piperazin-1-yl]cyclohexyl}-4-methyl-4-{5-[(1S,2R)-2-methylcyclopropyl]-1,2,4-oxadiazol-3-yl}piperidine-1-carboxamide] | 156
23 | CC(C)N1CCN([C@H]2CCCC(F)(F)[C@@H]2NC(=O)N2CCC(C)(c3noc([C@@H]4C[C@@H]4C)n3)CC2)CC1 [Example 69, N-{(1R,6S)-2,2-difluoro-6-[4-(propan-2-yl)piperazin-1-yl]cyclohexyl}-4-methyl-4-{5-[(1R,2S)-2-methylcyclopropyl]-1,2,4-oxadiazol-3-yl}piperidine-1-carboxamide] | 161

From patent US12162872B2, “Cycloalkylurea derivative” (Sumitomo Pharma Co., Ltd., priority 2019, dated 2024)
